Data reported in patent publication US20250339445A1, “Modulators of Orphan Nuclear Receptors for Treating Pancreatitis, Glioblastoma, Sarcopenia and Stroke” (Emory University, priority 2020, published 2025).
Entries after “also recorded” stand apart in the source; their conditions may differ.

Key:
[1] = test system: high fat diet (HFD) C57BL/6 mice; experiment: HFD-fed C57BL/6 mice, 15 mg/kg Compound 1 (Example 8); format: in vivo
Experimental: (§1) Male C57BL/6J mice, 7 to 8 weeks old, were housed randomly in standard cages and were fed a HFD, or atherogenic diet (consisting 1% Chol and 0.5% cholic acid, see also Table 6). All mice had free access to water during the experimental period. During the feeding period body weight was monitored every 3 days. In the HFD experiment, after 4 or 6 weeks, the resultant obese mice were treated with antagomiR-122 (5 μg/mouse once a week for 3 weeks), or i.p. injected with Compound 1 (RORα agonist, 7.5 mg/kg twice a week for 3 weeks; or 15 mg/kg 3 times a week for 3 weeks). The obese control (HFD) group was administered only saline with DMSO and antagomiR-control. After 3 weeks of treatment mice were sacrificed and livers were taken for RNA-seq analysis. Livers, white adipose, and skeletal muscle tissues were frozen in liquid nitrogen or in optimum cutting temperature embedded frozen blocks, for further RNA and histologic analysis. In the atherogenic diet experiment mice were treated with 15 mg/kg Compound 1 after 3 weeks with the diet. After 3.5 weeks of treatment, mice were sacrificed, and the livers were frozen in liquid nitrogen or in optimum cutting temperature embedded frozen blocks. Plasma was collected from atherogenic diet-fed mice and saved in −20° C. for ALT and AST analysis using the Reflotron® Analyzer and test-strips (Roche).
Experimental design: C57BL/6 mice fed for 6 weeks with high fat diet (HFD) were injected with 15 mg/kg Compound 1 (or saline+DMSO) 3 times a week for 3 weeks (n=6).

Huh7 cells = experiment: LDH release from Huh7 cells; format: cell-based, human; details: Huh7, 16 h exposure
[2] = test system: high-fat-fed C57BL/6 mice; experiment: High-fat-diet-fed C57BL/6 mice treated with Compound 1 and/or antagomiR-122; format: in vivo
Experimental: C57BL/6 mice were fed a 50% high fat diet (HFD) for four weeks. The control cohort received three hydrodynamic tail vein injections of a 5 μg antagomiR-control and six i.p injections of saline over three weeks. A second cohort was hydrodynamic tail vein injected with 5 μg antagomiR-122 (the reverse complement that inhibits activity of miR-122) three times and i.p injections of saline six times over three weeks. A third cohort was injected i.p. with Compound 1 (7.5 mg/kg) twice a week plus antagomiR-control once a week over the course of 3 weeks. The final cohort was injected i.p. with Compound 1 (7.5 mg/kg) twice a week plus antagomiR-122 injections once a week over the course of 3 weeks.
as §1
In the HFD experiment, after 4 or 6 weeks, the resultant obese mice were treated with antagoMIR122 (5 μg/mouse once a week for 3 weeks), or i.p. injected with Compound 1 (RORα agonist, 7.5 mg/kg twice a week for 3 weeks; or 15 mg/kg 3 times a week for 3 weeks). The obese control (HFD) group was administered only saline with DMSO and antagomiR-control.
Mice were fed with a 50% HFD and after 4 weeks, when fatty liver was already established, they were treated with Compound 1, antagoMIR122 or both compounds together for an additional 3 weeks. […] The weighing of mice began at week 3, one week before treatments were initiated. […] The liver weight of the mice was in accordance with their body weight.

RORα-regulated genes = experiment: Modulation of RORα-regulated genes in healthy C57BL/6 mice, single injection; format: in vivo
Experimental: Healthy C57BL/6 mice were injected i.p. once with 7.5 mg/kg Compound 1 or saline control. Mice were sacrificed at 1, 2, and 7 day time points post-injection. miR-122 and Gpase 6 mRNA levels were determined by qRT-PCR for each time point. MicroRNA levels were normalized to RNU6; plasma miR-122 was normalized to spiked in C. elegans miR-39; and mRNA levels were normalized to HPRT.
Compound 1 and AntagomiR injections to mice. C57BL/6 male mice, 7-8 weeks old, or Sgp130FC, 9-month-old male mice, were injected i.p. with 7.5 mg/kg Compound 1 dissolved in saline and 3% DMSO. Saline was injected as control. Mice were hydrodynamic tail vain injected with antagomiR-122 or antagomiR-control (negative control) (5 μg/mouse in 1.5 ml saline). Mice were sacrificed according to the legend of the figure describing the experimental results and the livers, white adipose and skeletal muscle tissues were frozen in liquid nitrogen or in OCT embedded frozen blocks, for further RNA and histologic analysis. AntagomiRs were obtained from Sigma Aldrich, see Table 3.

[3] = test system: atherogenic diet C57BL/6 mice; experiment: Atherogenic (fibrotic) diet mouse model; format: in vivo
Experimental: as §1
Livers and adipose samples were placed in 4% buffered formaldehyde for 24 hours, followed by 80% ethanol and then embedded in paraffin blocks. Liver and adipose tissues were cut into […], deparaffinized with xylene and hydrated through graded ethanol. For the H&E staining, tissue sections were stained with hematoxylin (Emmonya Biotech Ltd.) and eosin (Leica, Surgipath). Liver macrophages were stained using rat anti-mouse F4/80 antigen (Serotec), followed by anti-Rat HRP (Histofine) and developed with a DAB kit (Zymed). Liver sections were stained for Masson Trichrome (Sigma). Liver CD3+ T cells were stained using Rat anti human-CD3-antibody (Bio-Rad), followed by anti-Rat HRP (Histofine) and developed with AEC (Invitrogen). α-SMA positive cells were stained using mouse anti-Human smooth Muscle Actin antibody (Dako), followed by anti-mouse HRP (Dako) and developed with DAB. The percentage area stained positively per high power field was calculated by ImageJ Software in 5-10 random fields.
Experimental design: C57BL/6 mice fed for 3 weeks with atherogenic diet (to induce fibrosis) and injected with 15 mg/kg Compound 1 (or saline+DMSO) 3 times a week for 3.5 week (n=8).
After 3 weeks of treatment mice were sacrificed and livers were taken for RNA-seq analysis. Livers, gonadal white adipose, and skeletal muscle tissues were frozen in liquid nitrogen or in optimum cutting temperature embedded frozen blocks, for further RNA and histologic analysis. In the atherogenic diet experiment mice were treated with 15 mg/kg Compound 1 after 3 weeks with the diet. After 3.5 weeks of treatment, mice were sacrificed, and the livers were frozen in liquid nitrogen or in optimum cutting temperature embedded frozen blocks. Plasma was collected from atherogenic diet-fed mice and stored at −20° C. for ALT and AST analysis using the Reflotron® Analyzer and test-strips (Roche).

[4] = atherogenic diet, 15 mg/kg 3 times a week for 3.5 weeks
[5] = atherogenic diet, 3 times weekly for 3.5 weeks
[6] = liver, atherogenic diet, 15 mg/kg 3 times a week for 3.5 weeks

O=C1Nc2cc(C(=O)N3CCC(Cc4ccccc4)CC3)ccc2Nc2ccccc21 [Compound 1]
Expression of RORα-regulated genes FGF21 and Gpase6 ([1]; HFD 6 weeks, 15 mg/kg 3 times a week for 3 weeks, liver): significantly induced expression
miR-122 and precursors in plasma and liver ([1]; HFD 6 weeks, 15 mg/kg 3 times a week for 3 weeks, 15 mg/kg): induced expression and secretion; also recorded: increased
Hepatic synthesis of triglycerides ([1]; mice fed a HFD or atherogenic diet): reduced hepatic synthesis of triglycerides
Toxicity to the cells as measured by LDH release (Huh7 cells): no apparent toxicity
Hepatic lipid droplets and TG content ([2]; 50% HFD, 7.5 mg/kg twice a week, 3 weeks): reduced
Body weight, Compound 1 co-administered with antagomiR-122 ([2]; 50% HFD, 3 weeks): returned exactly to that of control animals
Dgat1 (MIR122 target gene) in the liver ([2]; 50% HFD, 3 weeks of treatment): reduced
Energy expenditure (β-hydroxybutyrate plasma level as surrogate marker) ([2]; 50% HFD, 3 weeks of treatment): increases energy expenditure; also recorded: increase
FGF21 (RORα target gene) in the liver ([2]; 50% HFD, 3 weeks of treatment): increased
MIR122 levels in plasma and muscle (secretion) ([2]; 50% HFD, 3 weeks of treatment): enhanced; also recorded: increase of MIR122
Mature MIR122 level in the liver ([2]; 50% HFD, 3 weeks of treatment): no increase
Muscle TG levels ([2]; 50% HFD, 3 weeks of treatment): reduced
pri- and pre-MIR122 in the liver ([2]; 50% HFD, 3 weeks of treatment): increased significantly
Body weight ([2]; 50% HFD, Compound 1 7.5 mg/kg i.p. twice a week, antagomiR once a week, 3 weeks, 7.5 mg/kg): weight steadily decreased; also recorded: reduces body weight; also recorded: significant decrease in body weight
Hepatic RORα level ([2]; HFD-fed mice): increased the RORα level to its level in mice fed normal diet
Gpase6 (G6Pase) mRNA, RORα target gene (RORα-regulated genes; 7.5 mg/kg i.p. once, liver, up to 7 days): significantly up-regulated; also recorded: increase
miR-18 and miR-126 levels (controls) (RORα-regulated genes; 7.5 mg/kg i.p. once, over 7 days): not affected
miR-122 levels in plasma and liver (RORα-regulated genes; 7.5 mg/kg i.p. once, up to 7 days post-injection): increased
Hepatic MIR122 precursors (pri-MIR122 and pre-MIR122) (RORα-regulated genes; single administration): increase
Mature MIR122 levels in WAT, muscle and heart tissues (RORα-regulated genes; single administration): increased significantly
Three MIR122 target genes in heart tissue (RORα-regulated genes; single administration): significantly down-regulated
AldoA, MIR122 target (RORα-regulated genes; single administration, liver): decrease
Liver vasculature by CD34 staining ([3]; atherogenic diet): no effect
NK cells in the livers ([3]; atherogenic diet): significant reduction in NK cells
Biomarkers of inflammation (Tgfb2 and TgfbR2) and fibrosis (Acta1, Col1A1 and Col3A1), liver mRNA [3, 4]: reducing
Mature miR-122 in tissue (liver) and plasma [3, 4]: increased
ALT and AST plasma levels (liver enzymes) ([3]; atherogenic diet, 15 mg/kg 3 times a week for 3.5 weeks, 15 mg/kg): significantly improved; also recorded: reducing significantly
Liver fibrosis (Masson Trichrome and αSMA staining) [3, 5]: significant reduction in liver fibrosis
Liver inflammation (H&E, CD3 and F4/80 staining) [3, 5]: significantly improved liver inflammation; also recorded: improved liver inflammation significantly
Immune infiltrate by H&E staining [3, 6]: decreased immune infiltrate
Myeloid infiltrate by F4/80 staining [3, 6]: decreased levels of myeloid infiltrate
T-cell density by CD3 staining [3, 6]: decreased T-cell density
Reduction of fibrotic area, Masson Trichrome (M.T) ([3]; liver, versus untreated cohort): 5 fold
Reduction of fibrotic area, α-SMA ([3]; liver, versus untreated cohort): 7 fold
